According to PMC11664502, “Parahydrogen Polarization in Reverse Micelles and Application to Sensing of Protein–Ligand Binding” (Journal of the American Chemical Society, 2024):

Molecular target: T1, thiaminase II (TenA) (Bacillus subtilis, UniProt P25052)
T1 sequence (P25052 1-236): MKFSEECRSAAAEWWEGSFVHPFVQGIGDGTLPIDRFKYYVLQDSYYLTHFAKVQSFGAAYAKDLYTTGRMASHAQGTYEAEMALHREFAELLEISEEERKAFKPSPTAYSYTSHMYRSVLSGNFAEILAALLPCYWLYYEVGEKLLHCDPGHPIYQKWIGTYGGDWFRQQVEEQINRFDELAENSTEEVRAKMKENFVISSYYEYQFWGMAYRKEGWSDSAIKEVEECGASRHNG
Assay: nhPHIP hyperpolarized NMR of iridium hydride signals in reverse micelles; agrees with a titration of TenA with ABAP (KD […])
Format: binding

Nc1ccnc(NCc2ccccc2)n1 [L, 4-amino-2-benzylaminopyrimidine]
Kd: 39.7 ± 8.9 µM
